Measured values as given in ChEMBL document CHEMBL1135808, “A new type of mixed anhydride and its applications to the synthesis of 7-substituted 8-chloro-5,5-dioxoimidazo[1,2-b][1,4,2]benzodithiazines with in vitro antitumor activity” (2002).

Columns and labels:
T47D = test: In vitro total growth inhibition against breast cancer […] cell lines was reported.; type: functional; details: Homo sapiens, read-out: Log TGI (converted)
BT-549 = test: In vitro growth inhibition against breast cancer BT 549 cell line was reported.; type: functional; details: Homo sapiens
MCF7 [1] = test: In vitro growth inhibition against breast cancer MCF 7 cell line was reported.; type: functional; details: Homo sapiens
MCF7 [2] = test: In vitro total growth inhibition against breast cancer MCF 7 cell lines was reported.; type: functional; details: Homo sapiens, read-out: Log TGI (converted)
MDA-MB-231 = test: In vitro growth inhibition against breast cancer MDA-MB-231/ATCC cell line was reported.; type: functional; details: Homo sapiens
MDA-N = test: In vitro growth inhibition against breast cancer MDA-N cell line was reported.; type: functional; details: Homo sapiens
NCI/ADR-RES = test: In vitro growth inhibition against breast cancer NCI/ADR-RES cell line was reported.; type: functional; details: Homo sapiens
HCC 2998 [3] = test: In vitro growth inhibition against colon cancer HCC2998 cell line was reported.; type: functional; details: Homo sapiens
HCC 2998 [4] = test: In vitro total growth inhibition against colon cancer HCC2998 cell lines was reported.; type: functional; details: Homo sapiens, read-out: Log TGI (converted)
HCT-116 = test: Log of molar concentration leading to 50% cell death against colon cancer HCT116 cell line was reported; type: functional; details: Homo sapiens, read-out: Log LC50 (the source's name) (converted)
SF-539 [5] = test: Log of molar concentration leading to 50% cell death against CNS cancer SF-539 cell line was reported; type: functional; details: Homo sapiens, read-out: Log LC50 (the source's name) (converted)
SF-539 [6] = test: In vitro total growth inhibition against CNS cancer SF-539 cell lines was reported.; type: functional; details: Homo sapiens, read-out: Log TGI (converted)
SNB-19 = test: In vitro growth inhibition against CNS cancer SNB-19 cell line was reported.; type: functional; details: Homo sapiens
U-251 [7] = test: In vitro growth inhibition against CNS cancer U251 cell line was reported.; type: functional; details: Homo sapiens
HT-29 = test: In vitro total growth inhibition against colon cancer HT-29 cell lines was reported.; type: functional; details: Homo sapiens, read-out: Log TGI (converted)
SW-620 [8] = test: In vitro growth inhibition against colon cancer SW620 cell line was reported.; type: functional; details: Homo sapiens
SW-620 [9] = test: In vitro total growth inhibition against colon cancer SW-620 cell lines was reported.; type: functional; details: Homo sapiens, read-out: Log TGI (converted)
Tumor Cell line = test: Log of molar concentration leading to 50% cell death was reported; type: functional; details: Homo sapiens, read-out: Log LC50 (the source's name) (converted)
HL-60 = test: In vitro growth inhibition against leukemia HL-60(TB) cell line was reported.; type: functional; details: Homo sapiens
RPMI-8226 [10] = test: In vitro total growth inhibition against leukemia […] cell lines was reported.; type: functional; details: Homo sapiens, read-out: Log TGI (converted)
MOLT-4 = test: In vitro growth inhibition against leukemia MOLT-4 cell line was reported.; type: functional; details: Homo sapiens
M14 [11] = test: In vitro growth inhibition against melanoma M14 cell line was reported.; type: functional; details: Homo sapiens
SK-MEL-2 [12] = test: In vitro growth inhibition against melanoma SK-MEL-2 cell line was reported.; type: functional; details: Homo sapiens
SK-MEL-28 = test: In vitro growth inhibition against melanoma SK-MEL-28 cell line was reported.; type: functional; details: Homo sapiens
UACC-62 = test: In vitro growth inhibition against melanoma UACC-62 cell line was reported.; type: functional; details: Homo sapiens
A549 = test: In vitro total growth inhibition against non-small-cell lung cancer A 549/ATCC cell lines was reported.; type: functional; details: Homo sapiens, read-out: Log TGI (converted)
Homo sapiens = organism: Homo sapiens; test: In vitro total growth inhibition against non-small-cell lung cancer EKVX cell lines was reported.; type: functional; details: read-out: Log TGI (converted)
NCI-H46 [13] = test: Log of molar concentration leading to 50% cell death against non-small-cell lung cancer […] cell line was reported; type: functional; details: Homo sapiens, read-out: Log LC50 (the source's name) (converted)
NCI-H46 [14] = test: In vitro total growth inhibition against non-small-cell lung cancer […] cell lines was reported.; type: functional; details: Homo sapiens, read-out: Log TGI (converted)
NCI-H522 = test: In vitro total growth inhibition against non-small-cell lung cancer NCI-522 cell lines was reported.; type: functional; details: Homo sapiens, read-out: Log TGI (converted)
NCI-H23 = test: In vitro total growth inhibition against non-small-cell lung cancer NCI-H23 cell lines was reported.; type: functional; details: Homo sapiens, read-out: Log TGI (converted)
NCI-H322M = test: In vitro total growth inhibition against non-small-cell lung cancer NCI-H322M cell lines was reported.; type: functional; details: Homo sapiens, read-out: Log TGI (converted)
OVCAR-3 [15] = test: In vitro total growth inhibition against ovarian cancer OVCAR-3 cell lines was reported.; type: functional; details: Homo sapiens, read-out: Log TGI (converted)
OVCAR-4 = test: In vitro growth inhibition against ovarian cancer OVCAR-4 cell line was reported.; type: functional; details: Homo sapiens
OVCAR-5 [16] = test: In vitro growth inhibition against ovarian cancer OVCAR-5 cell line was reported.; type: functional; details: Homo sapiens
OVCAR-5 [17] = test: In vitro total growth inhibition against ovarian cancer OVCAR-5 cell lines was reported.; type: functional; details: Homo sapiens, read-out: Log TGI (converted)
OVCAR-8 = test: In vitro total growth inhibition against ovarian cancer OVCAR-8 cell lines was reported.; type: functional; details: Homo sapiens, read-out: Log TGI (converted)
ACHN = test: In vitro total growth inhibition against renal cancer ACHN cell lines was reported.; type: functional; details: Homo sapiens, read-out: Log TGI (converted)
CAKI-1 = test: In vitro total growth inhibition against renal cancer CAKI-1cell lines was reported.; type: functional; details: Homo sapiens, read-out: Log TGI (converted)
RXF 393 = test: In vitro growth inhibition against renal cancer RXF 393 cell line was reported.; type: functional; details: Homo sapiens
786-0 [18] = test: In vitro growth inhibition against renal cancer […] cell line was reported.; type: functional; details: Homo sapiens
786-0 [19] = test: In vitro total growth inhibition against renal cancer […] cell lines was reported.; type: functional; details: Homo sapiens, read-out: Log TGI (converted)
A498 = test: In vitro growth inhibition against renal cancer A498 cell line was reported.; type: functional; details: Homo sapiens
SN12C = test: In vitro growth inhibition against renal cancer SN12C cell line was reported.; type: functional; details: Homo sapiens
TK-10 [20] = test: In vitro growth inhibition against renal cancer TK-10 cell line was reported.; type: functional; details: Homo sapiens
TK-10 [21] = test: In vitro total growth inhibition against renal cancer TK-10 cell lines was reported.; type: functional; details: Homo sapiens, read-out: Log TGI (converted)
UO-31 = test: In vitro growth inhibition against renal cancer UO-31 cell line was reported.; type: functional; details: Homo sapiens
RPMI-8226 [22] = test: Log of molar concentration leading to 50% cell death against leukemia […] cell line was reported; type: functional; details: Homo sapiens, read-out: Log LC50 (the source's name) (converted)
KM12 = test: Log of molar concentration leading to 50% cell death against colon cancer KM12 cell line was reported; type: functional; details: Homo sapiens, read-out: Log LC50 (the source's name) (converted)
OVCAR-3 [23] = test: Log of molar concentration leading to 50% cell death against ovarian cancer OVCAR-3 cell line was reported; type: functional; details: Homo sapiens, read-out: Log LC50 (the source's name) (converted)
MCF7 [24] = test: Log of molar concentration leading to 50% cell death against breast cancer MCF 7 cell line was reported; type: functional; details: Homo sapiens, read-out: Log LC50 (the source's name) (converted)
LOX IMVI = test: In vitro total growth inhibition against melanoma LOX IMVI cell lines was reported.; type: functional; details: Homo sapiens, read-out: Log TGI (converted)
M14 [25] = test: Log of molar concentration leading to 50% cell death against melanoma M14 cell line was reported; type: functional; details: Homo sapiens, read-out: Log LC50 (the source's name) (converted)
SK-MEL-2 [26] = test: In vitro total growth inhibition against melanoma SK-MEL-2 cell lines was reported.; type: functional; details: Homo sapiens, read-out: Log TGI (converted)
SK-MEL-5 = test: Log of molar concentration leading to 50% cell death against melanoma SK-MEL-5 cell line was reported; type: functional; details: Homo sapiens, read-out: Log LC50 (the source's name) (converted)
UACC-257 [27] = test: Log of molar concentration leading to 50% cell death against melanoma UACC-257 cell line was reported; type: functional; details: Homo sapiens, read-out: Log LC50 (the source's name) (converted)
UACC-257 [28] = test: In vitro total growth inhibition against melanoma UACC-257 cell lines was reported.; type: functional; details: Homo sapiens, read-out: Log TGI (converted)
U-251 [29] = test: Log of molar concentration leading to 50% cell death against CNS cancer U251 cell line was reported; type: functional; details: Homo sapiens, read-out: Log LC50 (the source's name) (converted)
HCT-15 = test: In vitro growth inhibition against colon cancer […] cell line was reported.; type: functional; details: Homo sapiens
PC-3 = test: In vitro total growth inhibition against prostate cancer PC-3 cell lines was reported.; type: functional; details: Homo sapiens, read-out: Log TGI (converted)
HOP-92 = test: In vitro total growth inhibition against non-small-cell lung cancer HOP-92 cell lines was reported.; details: Homo sapiens, read-out: Log TGI (converted)

Cc1ccc2cccc(NC(=O)c3cc4c(cc3Cl)Sc3nccn3S4(=O)=O)c2n1
TGI (T47D): 6.31 µM
GI50 (BT-549): 11.5 µM
GI50 (MCF7 [1]): 3.24 µM
TGI (MCF7 [2]): 14.8 µM
GI50 (MDA-MB-231): 11.5 µM
GI50 (MDA-N): 13.8 µM
GI50 (NCI/ADR-RES): 14.5 µM
GI50 (HCC 2998 [3]): 1.82 µM
TGI (HCC 2998 [4]): 4.68 µM
CC50 (HCT-116): 40.7 µM
CC50 (SF-539 [5]): 25.7 µM
TGI (SF-539 [6]): 4.9 µM
GI50 (SNB-19): 10.2 µM
GI50 (U-251 [7]): 3.47 µM
TGI (HT-29): 56.2 µM
GI50 (SW-620 [8]): 7.76 µM
TGI (SW-620 [9]): 23.4 µM
CC50 (Tumor Cell line): 91.2 µM
GI50 (HL-60): 0.01 µM
TGI (RPMI-8226 [10]): 3.8 µM
GI50 (MOLT-4): 4.57 µM
GI50 (M14 [11]): 7.24 µM
GI50 (SK-MEL-2 [12]): 13.2 µM
GI50 (SK-MEL-28): 9.55 µM
GI50 (UACC-62): 14.5 µM
TGI (A549): 25.7 µM
TGI (Homo sapiens): 25.7 µM
CC50 (NCI-H46 [13]): 26.9 µM
TGI (NCI-H46 [14]): 7.76 µM
TGI (NCI-H522): 26.3 µM
TGI (NCI-H23): 56.2 µM
TGI (NCI-H322M): 24.5 µM
TGI (OVCAR-3 [15]): 11.5 µM
GI50 (OVCAR-4): 11 µM
GI50 (OVCAR-5 [16]): 16.2 µM
TGI (OVCAR-5 [17]): 37.2 µM
TGI (OVCAR-8): 14.5 µM
TGI (ACHN): 33.9 µM
TGI (CAKI-1): 63.1 µM
GI50 (RXF 393): 9.55 µM
GI50 (786-0 [18]): 16.2 µM
TGI (786-0 [19]): 38 µM
GI50 (A498): 16.2 µM
GI50 (SN12C): 12.3 µM
GI50 (TK-10 [20]): 8.51 µM
TGI (TK-10 [21]): 20.9 µM
GI50 (UO-31): 1.02 µM
CC50 (RPMI-8226 [22]): 8.51 µM
CC50 (KM12): 43.7 µM
CC50 (OVCAR-3 [23]): 34.7 µM
CC50 (MCF7 [24]): 38.9 µM
TGI (LOX IMVI): 18.2 µM
CC50 (M14 [25]): 57.5 µM
TGI (SK-MEL-2 [26]): 32.4 µM
CC50 (SK-MEL-5): 50.1 µM
CC50 (UACC-257 [27]): 51.3 µM
TGI (UACC-257 [28]): 26.9 µM
CC50 (U-251 [29]): 38 µM
GI50 (HCT-15): 4.79 µM
TGI (PC-3): 10.5 µM
TGI (HOP-92): 67.6 µM
